From patent US4839376A, “Pyrazoline derivatives for treating cerebrovascular diseases” (Mitsui Toatsu Chemicals, Inc., priority 1987, dated 1989)
Where two headings read alike, the source gives them in different places.

Assays:
[1] = test system: ischemic cerebral edemas of rats caused by occlusion of the middle cerebral artery; assay: Action upon ischemic cerebral edemas of rats caused by occlusion of the middle cerebral artery; assay type: in vivo, Wistar rats; details: Rattus norvegicus, ip, 24 h, read-out: Cerebral Edema Inhibition Rate; for inhibition in vivo at 25 mg/kg: dose 25 mg/Kg i.p.; for inhibition in vivo at 30 mg/kg: dose 30 mg/Kg i.p.
Procedure: (Action upon ischemic cerebral edemas of rats caused by occlusion of the middle cerebral artery)
The compound being tested was suspended in 0.5% aqueous solution of CMC, and this suspension was intraperitoneally injected to each rat immediately after occlusion, and 8 hours and 16 hours later (a total of three times). Twenty-four hours after occlusion, each of the treated rats was sacrificed, the brain was excised, and the water content of hemispheres were determined by weighing the hemispheres before and after drying at 110° C. to the constant weight. On the other hand, the rats of the control group were subjected to arterial occlusion in the same way as above, followed by intraperitoneal injection of physiological saline three times a day. The cerebral edema inhibition rate of each compound was calculated from the following equation: [formula] where CL and CR represent the water contents of left and right hemispheres of the control group and SL and SR the water contents of left and right hemispheres of the treated group.

[2] = Acute toxicity (LD50) by intraperitoneal injection to mice; details: mouse, in vivo, ip, mortality 48 hours after injection
Procedure: Acute toxicity (LD50) was determined by intraperitoneal injection of a compound being tested to mice and by calculation from the mortality 48 hours after injection by the usual method.

[3] = test system: cerebral infarction of rats caused by occlusion of the middle cerebral artery; assay: Action against cerebral infarction of rats caused by occlusion of the middle cerebral artery (TTC stain, planimeter); assay type: in vivo; details: i.p. three times, 24 h after occlusion
Procedure: (Action against cerebral infarction of rats caused by occlusion of the middle cerebral artery)
Cerebral infarction of rats caused by occlusion of the middle cerebral artery was measured by the method of Tamura et al. (Japan Clinics, 43, 185, 1985). The middle cerebral artery of rats was artificially occluded, the compound being tested was suspended in 0.5% aqueous solution of CMC, and this suspension was intraperitoneally injected to each rat immediately after occlusion, and 8 hours and 16 hours later (a total of three times). Twenty-four hours after occlusion, each of the treated rats was sacrificed, and the brain was excised, stained with TTC and cut into equal six parts from top to bottom. The cross-sections were photographed, and the ratio of infarcted areas to the whole brain was measured by means of a planimeter.

[4] = cited from earlier work; for protection of the brain from cerebral ischemia: literature
[5] = three times (immediately, 8 and 16 h after occlusion)
[6] = control group 11.58 ± 0.81, *5% significant difference
[7] = control group 11.58 ± 0.81, **1% significant difference
[8] = dose 50 mg/Kg i.p., three times (immediately, 8 and 16 h after occlusion)

| SMILES | inhibition in vivo at 25 mg/kg [1, 5] | LD50 at 48 h [2] | inhibition in vivo at 30 mg/kg [1, 5] | other results |
| --- | --- | --- | --- | --- |
| Clc1ccccc1C1CC=NN1 (stereo not drawn) [Compound 34, 5-(2-Chlorophenyl)-2-pyrazoline] | 29.1% | 600 mg/kg |  | Rate of Infarcted Area [3, 6]: 8.56 ± 0.71% |
| O=C(c1ccccn1)N1N=CCC1c1ccccc1 (stereo not drawn) [Compound 3, 1-(2-Pyridylcarbonyl)-5-phenyl-2-pyrazoline] |  | 560 mg/kg | 15.7% |  |
| O=C(CN1N=CCC1c1ccccc1)c1ccccc1 (stereo not drawn) [Compound 61, 1-Benzoylmethyl-5-phenyl-2-pyrazoline] |  | 540 mg/kg | 16.7% |  |
| O=C(c1cnccn1)N1N=CCC1c1ccccc1 (stereo not drawn) [Compound 8, 1-Pyrazylcarbonyl-5-phenyl-2-pyrazoline] | 33% | 710 mg/kg |  |  |
| O=C(Nc1cccnc1)N1N=CCC1c1ccccc1 (stereo not drawn) [Compound 65, 1-[N-(3-pyridyl)carbamoyl]-5-phenyl-2-pyrazoline] | 27.1% | 630 mg/kg |  |  |
| CCOC(=O)N1N=CCC1C (stereo not drawn) [Compound 28, 1-Ethoxycarbonyl-5-methyl-2-pyrazoline] |  |  |  | Rate of Infarcted Area [3, 7]: 5.79 ± 0.43% |
| CC1CC=NN1C(=O)c1cccnc1 (stereo not drawn) [Compound 17, 1-(3-Pyridylcarbonyl)-5-methyl-2-pyrazoline] | 34% | 850 mg/kg |  | Rate of Infarcted Area [3, 6]: 8.01 ± 0.54% |
| O=C(c1cccnc1)N1N=CCC1c1ccco1 (stereo not drawn) [Compound 7, 1-(3-Pyridylcarbonyl)-5-(2-furyl)-2-pyrazoline] |  | 1100 mg/kg | 31.2% | Rate of Infarcted Area [3, 6]: 6.96 ± 0.79% |
| C1=NNC(c2cccnc2)C1 (stereo not drawn) [Compound 53, 5-(3-Pyridyl)-2-pyrazoline] | 16.7% | 600 mg/kg |  |  |
| Cc1ccccc1C1CC=NN1 (stereo not drawn) [Compound 37, 5-(2-Methylphenyl)-2-pyrazoline] | 30.4% | 680 mg/kg |  |  |
| CCOC(=O)N1N=CCC1c1ccccc1 (stereo not drawn) [Compound 25, 1-Ethoxycarbonyl-5-phenyl-2-pyrazoline] |  | 830 mg/kg |  | inhibition in vivo at 50 mg/kg [1, 8]: 27.2% |
| Fc1cccc(C2CC=NN2)c1 (stereo not drawn) [Compound 42, 5-(3-Fluorophenyl)-2-pyrazoline] | 23.9% | 710 mg/kg |  |  |
| CC(C)C1CC=NN1C(=O)c1cccnc1 (stereo not drawn) [Compound 22, 1-(3-Pyridylcarbonyl)-5-isopropyl-2-pyrazoline] |  | 830 mg/kg |  | inhibition in vivo at 50 mg/kg [1, 8]: 27.2% |
| COc1ccccc1C1CC=NN1C(=O)c1cccnc1 (stereo not drawn) [Compound 4, 1-(3-Pyridylcarbonyl)-5-(2-methoxyphenyl)-2-pyrazoline] |  | 610 mg/kg | 28.3% |  |
| O=C([O-])N1N=CCC1c1ccccc1.[Na+] (stereo not drawn) |  | 710 mg/kg |  | inhibition in vivo at 50 mg/kg [1]: 18.6% |
| O=C(c1ccncc1)N1N=CCC1c1ccccc1 (stereo not drawn) [Compound 2, 1-(4-Pyridylcarbonyl)-5-phenyl-2-pyrazoline] |  | 630 mg/kg | 30.5% |  |
| S=C(Nc1cccnc1)N1N=CCC1c1ccccc1 (stereo not drawn) [Compound 66, 1-[N-(3-pyridyl)thiocarbamoyl]-5-phenyl-2-pyrazoline] | 18.9% | 560 mg/kg |  |  |
| COc1ccccc1C1CC=NN1 (stereo not drawn) [Compound 40, 5-(2-Methoxylphenyl)-2-pyrazoline] | 25.7% | 560 mg/kg |  |  |
| O=C(C1CCCCC1)N1N=CCC1c1ccccc1 (stereo not drawn) [Compound 62, 1-Cyclohexylcarbonyl-5-phenyl-2-pyrazoline] |  | 630 mg/kg | 15.3% |  |

| SMILES | inhibition in vivo at 25 mg/kg [1, 5] | LD50 at 48 h [2] | inhibition in vivo at 30 mg/kg [1, 5] | other results |
| --- | --- | --- | --- | --- |
| CCCC(C)C1(CC)C(=O)NC(=O)NC1=O (stereo not drawn) [pentobarbital] |  |  |  | protection of the brain from cerebral ischemia [4]: protect the brain from cerebral ischemia |
| O=C(c1ccccc1)N1N=CCC1c1ccccc1 (stereo not drawn) [Compound 59, 1-Benzoyl-5-phenyl-2-pyrazoline] |  | 600 mg/kg | 21.7% | Rate of Infarcted Area [3, 6]: 7.69 ± 0.67% |
| CC(=O)N1N=CCC1c1ccccc1 (stereo not drawn) [Compound 56, -Acetyl-5-phenyl-2-pyrazoline] | 15.9% | 1100 mg/kg |  |  |
| COc1ccc(C2CC=NN2C(=O)c2cccnc2)cc1 (stereo not drawn) [Compound 6, 1-(3-Pyridylcarbonyl)-5-(4-methoxyphenyl)-2-pyrazoline] |  | 830 mg/kg | 19.3% |  |
| CCC1CC=NN1C(=O)OC (stereo not drawn) [Compound 30, 1-Methoxycarbonyl-5-ethyl-2-pyrazoline] | 29.1% | 740 mg/kg |  |  |
| CCC1(c2ccccc2)C(=O)NC(=O)N(C)C1=O (stereo not drawn) [mefobarbital] |  |  |  | protection of the brain from cerebral ischemia [4]: protect the brain from cerebral ischemia |
| COc1cccc(C2CC=NN2C(=O)c2cccnc2)c1 (stereo not drawn) [Compound 5, 1-(3-Pyridylcarbonyl)-5-(3-methoxyphenyl)-2-pyrazoline] |  | 630 mg/kg | 20.7% |  |
| Cc1ccccc1C1CC=NN1C(=O)c1cccnc1 (stereo not drawn) [Compound 10, 1-(3-Pyridylcarbonyl)-5-(2-methylphenyl)-2-pyrazoline] | 31.3% | 610 mg/kg |  |  |
| C1=NNC(c2ccncc2)C1 (stereo not drawn) [Compound 52, 5-(4-Pyridyl)-2-pyrazoline] | 21.8% | 540 mg/kg |  |  |
| CCN(CC)Cc1nccn1-c1ccc([N+](=O)[O-])cc1C(=O)c1ccccc1Cl [Nizofenone] |  |  |  | action to inhibit cerebral edemas ([4]; Japan Clinics, 43, 185, 1985): no action to inhibit cerebral edemas; consciousness troubles ([4]; Japan Clinics, 43, 185, 1985): helps alleviate consciousness troubles; protection of the brain from cerebral ischemia [4]: useful to protect the brain from cerebral ischemia |
| O=C(c1ccc(C(F)(F)F)cc1)N1N=CCC1c1ccccc1 (stereo not drawn) [Compound 60, 1-(4-Trifluoromethylbenzoyl)-5-phenyl-2-pyrazoline] |  | 810 mg/kg | 20.9% |  |
| O=C(c1cccnc1)N1N=CCC1c1ccccc1F (stereo not drawn) [Compound 9, 1-(3-Pyridylcarbonyl)-5-(2-fluorophenyl)-2-pyrazoline] | 29.1% | 830 mg/kg |  |  |
| O=C(c1cccnc1)N1N=CCC1c1ccccc1 (stereo not drawn) [Compound 1, 1-(3-Pyridylcarbonyl)-5-phenyl-2-pyrazoline] |  | 600 mg/kg | 36% | Rate of Infarcted Area [3, 7]: 5.03 ± 0.49% |
| O=C(c1cccnc1)N1N=CCC1c1ccc(Cl)cc1 (stereo not drawn) [Compound 11, 1-(3-Pyridylcarbonyl)-5-(4-chlorophenyl)-2-pyrazoline] | 29.3% | 710 mg/kg |  |  |
| O=C(c1ccco1)N1N=CCC1c1ccccc1 (stereo not drawn) [Compound 63, 1-(2-Furylcarbonyl)-5-phenyl-2-pyrazoline] |  | 710 mg/kg | 26.1% |  |
| O=C(c1cccs1)N1N=CCC1c1ccccc1 (stereo not drawn) [Compound 64, 1-(2-Thienylcarbonyl)-5-phenyl-2-pyrazoline] |  | 830 mg/kg | 28.5% |  |
| C1=NNC(c2ccccc2)C1 (stereo not drawn) [Compound 31, 5-Phenyl-2-pyrazoline] | 32% | 540 mg/kg |  | Rate of Infarcted Area [3, 6]: 7.93 ± 0.56% |
| FC(F)(F)c1cccc(C2CC=NN2)c1 (stereo not drawn) [Compound 45, 5-(3-Trifluoromethylphenyl)-2-pyrazoline] | 30.4% | 630 mg/kg |  |  |
